From ChEMBL document CHEMBL1201862, “PubChem BioAssay data set” (2004)
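Values below derive from 48-hour exposures of cells grown in 96-well plates, with endpoints linearly interpolated between the two concentrations bracketing the appropriate inhibition level. GI50 marks 50% less growth.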 Activity calls are given as the source filed them. Cut-off read from the data, not from the text of the source: active = GI50 up to about 1.1 µM and inactive = higher.

Key:
Assay in all cases: NCI tumour cell line growth inhibition, 48 h
786-0 = test system: 786-0
A498 = test system: A498
COLO 205 = test system: COLO 205
HCC 2998 = test system: HCC 2998
HOP-92 = test system: HOP-92
IGROV-1 = test system: IGROV-1
MDA-N = test system: MDA-N
MOLT-4 = test system: MOLT-4
Malme-3M = test system: Malme-3M
NCI-H460 = test system: NCI-H460
RXF 393 = test system: RXF 393
SF-268 = test system: SF-268
SF-295 = test system: SF-295
SK-OV-3 = test system: SK-OV-3
SNB-75 = test system: SNB-75
T47D = test system: T47D
TK-10 = test system: TK-10
U-251 = test system: U-251
UACC-257 = test system: UACC-257
UACC-62 = test system: UACC-62

Row | SMILES | GI50 (786-0) | GI50 (A498) | GI50 (COLO 205) | GI50 (HCC 2998) | GI50 (HOP-92) | GI50 (IGROV-1) | GI50 (MDA-N) | GI50 (MOLT-4) | GI50 (Malme-3M) | GI50 (NCI-H460) | GI50 (RXF 393) | GI50 (SF-268) | GI50 (SF-295) | GI50 (SK-OV-3) | GI50 (SNB-75) | GI50 (T47D) | GI50 (TK-10) | GI50 (U-251) | GI50 (UACC-257) | GI50 (UACC-62)
1 | COc1ccc2c(c1)CC[C@@H]1[C@@H]2CC[C@]2(C)C(=O)/C(=C/c3ccncc3)C[C@@H]12 | 32.3 µM (inactive) | 27.3 µM (inactive) | 25.3 µM (inactive) | 27.4 µM (inactive) | 27.9 µM (inactive) | 56.1 µM (inactive) | 42.6 µM (inactive) | > 100 µM (inactive) | 25.8 µM (inactive) | 27.8 µM (inactive) | 18.2 µM (inactive) | 36.1 µM (inactive) | 22.4 µM (inactive) | 32.9 µM (inactive) | 32.1 µM (inactive) | 33.3 µM (inactive) | 30.6 µM (inactive) | 54.3 µM (inactive) | 29.3 µM (inactive) | 31.6 µM (inactive)
2 | COc1ccc2cc(CNCCCCCCNC(=O)Nc3cccc4ccccc34)ccc2c1 | > 100 µM (inactive) | > 100 µM (inactive) | > 100 µM (inactive) | > 100 µM (inactive) | > 100 µM (inactive) | > 100 µM (inactive) | > 100 µM (inactive) | > 100 µM (inactive) | > 100 µM (inactive) | > 100 µM (inactive) | > 100 µM (inactive) | > 100 µM (inactive) | > 100 µM (inactive) | > 100 µM (inactive) | > 100 µM (inactive) | > 100 µM (inactive) | > 100 µM (inactive) | > 100 µM (inactive) | > 100 µM (inactive) | > 100 µM (inactive)
3 | CCCCCCCCCCCCOP(=O)(O)OP(=O)(O)OCC1OC(n2ccc(N)nc2=O)CC1O (stereo not given) | > 100 µM (inactive) | > 100 µM (inactive) | > 100 µM (inactive) | > 100 µM (inactive) | > 100 µM (inactive) | > 100 µM (inactive) | > 100 µM (inactive) | > 100 µM (inactive) | > 100 µM (inactive) | > 100 µM (inactive) | > 100 µM (inactive) | > 100 µM (inactive) | > 100 µM (inactive) | > 100 µM (inactive) | 95.9 µM (inactive) | 38.3 µM (inactive) | > 100 µM (inactive) | > 100 µM (inactive) | > 100 µM (inactive) | > 100 µM (inactive)
4 | COc1c(C(=O)O)cccc1-c1cccc(C(=O)NCCN(CCNC(=O)c2cccc(-c3cccc(C(=O)O)c3OC)c2OC)CCNC(=O)c2cccc(-c3cccc(C(=O)O)c3OC)c2OC)c1OC | 31.6 µM (inactive) | 31.8 µM (inactive) | 20.2 µM (inactive) | 31.7 µM (inactive) | 67.1 µM (inactive) | 39.8 µM (inactive) | 5.58 µM (inactive) | 36.7 µM (inactive) | 23.4 µM (inactive) | 25.4 µM (inactive) | 28.6 µM (inactive) | 74.8 µM (inactive) | 40.5 µM (inactive) | 33 µM (inactive) | 25.9 µM (inactive) | 43 µM (inactive) | > 100 µM (inactive) | 28.5 µM (inactive) | 62.7 µM (inactive) | 25.8 µM (inactive)
5 | Cc1c2oc3c(C)cc(F)c(C(=O)NC4C(=O)NC(C(C)C)C(=O)N5CCCC5C(=O)N(C)CC(=O)N(C)C(C(C)C)C(=O)OC4C)c3nc-2c(C(=O)NC2C(=O)NC(C(C)C)C(=O)N3CCCC3C(=O)N(C)CC(=O)N(C)C(C(C)C)C(=O)OC2C)c(N)c1=O (stereo not given) | 0.00512 µM (active) | 0.161 µM (active) | 0.0267 µM (active) | 0.109 µM (active) | 0.154 µM (active) | 0.00618 µM (active) | 0.0024 µM (active) | < 0.001 µM (active) | 0.00149 µM (active) | 0.00179 µM (active) | 0.106 µM (active) | < 0.001 µM (active) | 0.00708 µM (active) | 0.16 µM (active) | 0.163 µM (active) | 0.101 µM (active) | 0.224 µM (active) | 0.00588 µM (active) | 0.00395 µM (active) | 0.0617 µM (active)
6 | Cc1ccnc2c1c(=O)c1ccccc1n2C | 53.6 µM (inactive) | 31.8 µM (inactive) | 39 µM (inactive) | 39.9 µM (inactive) | 49.7 µM (inactive) | 31 µM (inactive) | 34.3 µM (inactive) | 23.9 µM (inactive) | 29.6 µM (inactive) | 13.1 µM (inactive) | 33.3 µM (inactive) | 28 µM (inactive) | 37.5 µM (inactive) | 35.2 µM (inactive) | 17.6 µM (inactive) | 38.9 µM (inactive) | 26.3 µM (inactive) | 39.8 µM (inactive) | 37.1 µM (inactive) | 16.2 µM (inactive)
7 | C[N+](C)(C)C(Cc1c[nH]c(=S)[nH]1)C(=O)O (stereo not given) | > 100 µM (inactive) | > 100 µM (inactive) | > 100 µM (inactive) | > 100 µM (inactive) | > 100 µM (inactive) | > 100 µM (inactive) | > 100 µM (inactive) | > 100 µM (inactive) | > 100 µM (inactive) | > 100 µM (inactive) | > 100 µM (inactive) | > 100 µM (inactive) | > 100 µM (inactive) | > 100 µM (inactive) | > 100 µM (inactive) | > 100 µM (inactive) | > 100 µM (inactive) | > 100 µM (inactive) | > 100 µM (inactive) | > 100 µM (inactive)
8 | O=c1sc2c(s1)-c1sc(=O)sc1SS2 | > 100 µM (inactive) | > 42.9 µM (inactive) | > 46 µM (inactive) | > 100 µM (inactive) | > 100 µM (inactive) | > 96.4 µM (inactive) | > 100 µM (inactive) | > 61 µM (inactive) | > 100 µM (inactive) | > 100 µM (inactive) | > 100 µM (inactive) | > 100 µM (inactive) | > 100 µM (inactive) | > 100 µM (inactive) | 7.71 µM (inactive) | > 100 µM (inactive) | > 52.6 µM (inactive) | > 31.6 µM (inactive) | > 96.8 µM (inactive) | > 100 µM (inactive)
9 | O=C(Cn1c2ccc(Br)cc2c2nc3ccccc3nc21)NNC(=S)NC1CCCCC1 | 15.5 µM (inactive) | 16.7 µM (inactive) | 13.2 µM (inactive) | 17.6 µM (inactive) | 11.8 µM (inactive) | 10.7 µM (inactive) | 16.8 µM (inactive) | 10.7 µM (inactive) | 19.7 µM (inactive) | 12.4 µM (inactive) | 6.89 µM (inactive) | 16.7 µM (inactive) | 13.1 µM (inactive) | 21.7 µM (inactive) | 13.8 µM (inactive) | 17.3 µM (inactive) | 15.4 µM (inactive) | 15 µM (inactive) | 16.4 µM (inactive) | 15.6 µM (inactive)
10 | O=C(/C=C/c1csc(-c2ccccc2)n1)NCc1ccc(C(=O)NCCc2ccccc2)cc1 | 8.63 µM (inactive) | 19.8 µM (inactive) | 42.1 µM (inactive) | > 100 µM (inactive) | 6.85 µM (inactive) | 36.6 µM (inactive) | > 100 µM (inactive) | > 100 µM (inactive) | 24.3 µM (inactive) | 55.3 µM (inactive) | 2.7 µM (inactive) | 5.94 µM (inactive) | 9.73 µM (inactive) | 12.3 µM (inactive) | 2.6 µM (inactive) | 41.2 µM (inactive) | 11.7 µM (inactive) | 5.16 µM (inactive) | 27.2 µM (inactive) | 31.8 µM (inactive)
11 | Cn1/c(=N\c2ccccc2[N+](=O)[O-])sc2ccccc21 | 30.7 µM (inactive) | 54.8 µM (inactive) | > 100 µM (inactive) | 30.3 µM (inactive) | 14.7 µM (inactive) | 5.4 µM (inactive) | > 100 µM (inactive) | > 100 µM (inactive) | > 100 µM (inactive) | 50.2 µM (inactive) | 30.1 µM (inactive) | 70.5 µM (inactive) | 42.6 µM (inactive) | 23 µM (inactive) | 18.4 µM (inactive) | 3.95 µM (inactive) | 8.93 µM (inactive) | 36.6 µM (inactive) | 29.9 µM (inactive) | 30.5 µM (inactive)
12 | Cc1cc(CN(Cc2ccccc2)Cc2nc3ccccc3[nH]2)c(O)c(CN(Cc2nc3ccccc3[nH]2)Cc2nc3ccccc3[nH]2)c1 | 15 µM (inactive) | 10.2 µM (inactive) | 19.8 µM (inactive) | 6.43 µM (inactive) | 3.48 µM (inactive) | 5.04 µM (inactive) | 6.43 µM (inactive) | 4.26 µM (inactive) | 24.9 µM (inactive) | 3.94 µM (inactive) | 13.5 µM (inactive) | 8.11 µM (inactive) | 6.15 µM (inactive) | 5.55 µM (inactive) | 8.91 µM (inactive) | 8.05 µM (inactive) | 4.71 µM (inactive) | 13 µM (inactive) | 4.86 µM (inactive) | 3.56 µM (inactive)
13 | Brc1ccc2[nH]cc(-c3csc(-c4ccccn4)n3)c2c1 | 7.93 µM (inactive) | 3.39 µM (inactive) | 13.4 µM (inactive) | 8.75 µM (inactive) | 20.8 µM (inactive) | 23 µM (inactive) | 27.6 µM (inactive) | 5.28 µM (inactive) | 22.1 µM (inactive) | 6.59 µM (inactive) | 6.03 µM (inactive) | 30.6 µM (inactive) | 6.68 µM (inactive) | 33 µM (inactive) | 16.9 µM (inactive) | 10.7 µM (inactive) | 24.2 µM (inactive) | 13.5 µM (inactive) | 23 µM (inactive) | 8.18 µM (inactive)
